Converted amounts (≈) assume the structure as drawn. Where two headings read alike, the source gives them in different places.
Tested on: Streptococcus mutans (S. mutans)
Assay: minimum inhibitory concentration (MIC) assay against S. mutans
Format: cell-based
Procedure: As used herein “minimum inhibitory concentration” or “MIC” refers to the lowest concentration (in μg/mL) of an antibiotic that inhibits the growth of a given strain of bacteria.
To determine the ability of the cannabinoid compounds described herein to reduce, or eliminate, S. mutans, a minimum inhibitory concentration (“MIC”) assay was performed. The assay was performed by Charles River Discovery Research Services UK Limited (Portishead, United Kingdom) in accordance with industry standards.

[1] = S. mutans, assay performed by Charles River Discovery Research Services UK Limited
[2] = Streptococcus mutans, read-out: minimum inhibitory concentration (MIC) against S. mutans

C=C(C)[C@@H]1CCC(C)=C[C@H]1c1c(O)cc(CCCCC)cc1O [CBD, cannabidiol]
MIC (Streptococcus mutans, S. mutans, assay performed by Charles River Discovery Research Services UK Limited, read-out: MIC): 25 µg/mL (≈ 79.5 µM) | MIC (Streptococcus mutans, S. mutans, summary statement in the description, read-out: minimum inhibitory concentration (MIC) against S. mutans): < 25 µg/mL

C=C(C)[C@@H]1CCC(C)=C[C@H]1c1c(O)cc(CCCC)cc1O [CBD-C4, cannabidibutol]
MIC [1]: 25 µg/mL (≈ 83.2 µM)

CCCc1cc(O)c(C/C=C(\C)CCC=C(C)C)c(O)c1C(=O)O [CBGVA, cannabigerovarinic acid]
MIC [1]: >200 µg/mL

C=C(C)[C@@H]1CCC(C)=C[C@H]1c1c(O)cc(CCCCC)c(C(=O)O)c1O [CBDA, cannabidiolic acid]
MIC (Streptococcus mutans): 25 µg/mL (≈ 69.7 µM) | MIC [2]: < 25 µg/mL

CCCCCc1cc2c(c(O)c1C(=O)O)C1C3C(CCC3(C)O2)C1(C)C (stereo not shown) [CBLA, cannabicyclolic acid]
MIC [1]: >200 µg/mL

CCCCCc1cc2c(c(O)c1C(=O)O)C=CC(C)(CCC=C(C)C)O2 (stereo not shown) [CBCA, cannabichromenic acid]
MIC [1]: >200 µg/mL

CCCCCc1cc(O)c2c(c1)OC(C)(CCC=C(C)C)C=C2 (stereo not shown) [CBC, cannabichromene]
MIC (Streptococcus mutans): 25 µg/mL (≈ 79.5 µM) | MIC [2]: < 25 µg/mL

CCCCCc1cc(O)c(C/C=C(\C)CCC=C(C)C)c(O)c1C(=O)O [CBGA, cannabigerolic acid]
MIC (Streptococcus mutans): 25 µg/mL (≈ 69.3 µM) | MIC [2]: < 25 µg/mL

CCCc1cc(O)c(C/C=C(\C)CCC=C(C)C)c(O)c1 [CBGV, cannabigerovarin]
MIC [1]: 25 µg/mL (≈ 86.7 µM)

CCCCCc1cc2c(c(O)c1C(=O)O)-c1cc(C)ccc1C(C)(C)O2 [CBNA, cannabinolic acid]
MIC [1]: >200 µg/mL

CCCCc1cc(O)c(CC=C(C)CCC=C(C)C)c(O)c1 [CBG-C4, cannabigerol butyl]
MIC [1]: 25 µg/mL (≈ 82.7 µM)

C=C(C)[C@@H]1CCC(C)=C[C@H]1c1c(O)cc(C)cc1O [CBD-C1]
MIC [1]: 100 µg/mL (≈ 387 µM)

CCCCCc1cc(O)c(C/C=C(\C)CCC=C(C)C)c(O)c1 [CBG, cannabigerol]
MIC (Streptococcus mutans): 25 µg/mL (≈ 79 µM) | MIC [2]: < 25 µg/mL

(+)-cannabidiol [(+)-CBD]
MIC [1]: 25 µg/mL

C=C(C)[C@@H]1CCC(C)=C[C@H]1c1c(O)cc(CC)cc1O [CBD-C2, cannabidiol ethyl]
MIC [1]: 25 µg/mL (≈ 91.8 µM)

C=C(C)[C@@H]1CCC(C)=C[C@H]1c1c(O)cc(CCC)c(C(=O)O)c1O [CBDVA, cannabidivarinic acid]
MIC [1]: 25 µg/mL (≈ 75.7 µM)

CCCCc1cc(O)c(C/C=C(\C)CCC=C(C)C)c(O)c1C(=O)O [CBGA-C4, cannabigerolic acid butyl]
MIC [1]: 12.5 µg/mL (≈ 36.1 µM)

CCCCCc1cc(O)c2c(c1)OC(C)(C)c1ccc(C)cc1-2 [CBN, cannabinol]
MIC (Streptococcus mutans): 50 µg/mL (≈ 161 µM) | MIC [2]: > 25 µg/mL

CCCCCc1cc(O)c2c(c1)OC1(C)CCC3C1C2C3(C)C (stereo not shown) [CBL, cannabicyclol]
MIC (Streptococcus mutans): > 200 µg/mL | MIC [2]: > 25 µg/mL

C=C(C)[C@@H]1CCC(C)=C[C@H]1c1c(O)cc(CCC)cc1O [CBDV, cannabidivarin]
MIC (Streptococcus mutans): 25 µg/mL (≈ 87.3 µM) | MIC [2]: < 25 µg/mL
